# Columns and labels:
# MCF-7, SF-268, NCI-H460 = assay: Human cell growth inhibition, three cell lines together; format: cell-based; conditions: read-out: IC50 averaged over the three cell lines investigated
# HIV-1 RT = conditions: cited from earlier work
# [1] = target: T1, Human FPPS (farnesyl diphosphate synthase) (Homo sapiens, UniProt P14324); assay: FPPS inhibition; format: biochemical
# T1 sequence (P14324 1-419): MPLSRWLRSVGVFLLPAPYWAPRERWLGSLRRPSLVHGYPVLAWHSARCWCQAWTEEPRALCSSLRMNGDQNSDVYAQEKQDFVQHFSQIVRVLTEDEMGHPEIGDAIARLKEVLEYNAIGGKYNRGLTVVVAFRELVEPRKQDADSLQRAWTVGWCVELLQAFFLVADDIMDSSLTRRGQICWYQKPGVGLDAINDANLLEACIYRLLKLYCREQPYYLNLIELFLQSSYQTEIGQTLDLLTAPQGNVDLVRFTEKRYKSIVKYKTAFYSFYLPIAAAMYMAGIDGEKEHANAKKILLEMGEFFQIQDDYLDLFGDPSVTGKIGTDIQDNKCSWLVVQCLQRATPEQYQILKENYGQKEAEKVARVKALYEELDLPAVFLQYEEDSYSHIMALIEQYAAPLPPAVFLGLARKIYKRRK
structure (smiles),measurement,setting,value
"O=P(O)(O)C(O)(Cc1cnc2ccccn12)P(=O)(O)O [Compound 44, minodronate]",IC50,"MCF-7, SF-268, NCI-H460",~5 µM
O=P(O)(O)C(Nc1cccc(-c2ccccc2)c1)P(=O)(O)O [Compound 3],activity in inhibiting NRTI excision (in words),HIV-1 RT; previous work ref 11,some activity
same,IC50,"MCF-7, SF-268, NCI-H460",~229 µM
"NCCC(O)(P(=O)(O)O)P(=O)(O)O [Compound 4, pamidronate]",inhibition of the phosphorolytic activity of RT (in words),HIV-1 RT,competitively inhibited
"O=P(O)(O)C(O)(Cn1ccnc1)P(=O)(O)O [Compound 36, zoledronate]",IC50,"MCF-7, SF-268, NCI-H460",~15 µM
O=P(O)(O)C(O)(Cc1ccc(Cl)c(Cl)c1)P(=O)(O)O [Compound 5],IC50,[1],8.5 µM
